Our source for the IC50 values is BindingDB's records for doi:10.1021/jm049768a (Eli Lilly, 2004).

A value given as a limit tells only on which side of the number the result lay.

The experiment concerns the target 3-phosphoinositide-dependent protein kinase 1 (Homo sapiens) (UniProt O15530). Put plainly: Inhibition of human PDK-1.
As usually defined, the IC50 is the midpoint of a concentration-inhibition curve. A high value points to a need for much substance. With `CC(C)OC(=O)N1CCn2cc(C3=C(c4cnc5ccccn45)C(=O)NC3=O)c3cccc(c32)C1` [7-(4-Imidazo[1,2-a]pyridin-3-yl-2,5-dioxo-2,5-dihydro-1H-pyrrol-3-yl)-3,4-dihydro-1H-[1,4]diazepino[6,7,1-hi]indole-2-carboxylic acid isopropyl ester], the IC50 amounted to 6.5 µM.
For `O=C1NC(=O)C(c2cnc3ccccn23)=C1c1cn2c3c(cccc13)CN(C(=O)N1CCCCC1)CC2` [3-Imidazo[1,2-a]pyridin-3-yl-4-[2-(piperidine-1-carbonyl)-1,2,3,4-tetrahydro-[1,4]diazepino[6,7,1-hi]indol-7-yl]-pyrrole-2,5-dione] the value was 4.3 µM.
Then `CN(C)C(=O)N1CCn2cc(C3=C(c4cnc5ccccn45)C(=O)NC3=O)c3cccc(c32)C1` [7-(4-Imidazo[1,2-a]pyridin-3-yl-2,5-dioxo-2,5-dihydro-1H-pyrrol-3-yl)-3,4-dihydro-1H-[1,4]diazepino[6,7,1-hi]indole-2-carboxylic acid dimethylamide], with more than 20 µM.
